From BigSolDB 2.1

O=Cc1ccc([N+](=O)[O-])cc1
solubility (mole fraction)
Conditions	273.15 K	278.15 K	283.15 K	288.15 K	293.15 K	298.15 K	303.15 K	308.15 K	313.15 K
in 2-butanone	0.0367	0.0459	0.0567	0.0689	0.0836	0.102	0.122	0.147	0.174
in DMF	0.104	0.119	0.135	0.152	0.17	0.192	0.213	0.237	0.262
in acetone	0.0389	0.051	0.0662	0.0851	0.107	0.134	0.166	0.202	0.244
in acetonitrile	0.0262	0.0351	0.0471	0.0614	0.0801	0.102	0.13	0.161	0.199
in ethanol	0.0151	0.0177	0.0199	0.0232	0.0265	0.031	0.0366	0.0422	0.0498
in ethyl acetate	0.0321	0.0401	0.0488	0.0591	0.072	0.087	0.106	0.126	0.151
in isopropanol	0.00326	0.00399	0.00451	0.005	0.00589	0.00703	0.00843	0.00929	0.0111
in methanol	0.0263	0.0323	0.0398	0.0488	0.0596	0.0731	0.0884	0.108	0.13
in n-butanol	0.0118	0.0128	0.0144	0.0161	0.018	0.02	0.0225	–	0.0283
in n-propanol	0.014	0.0152	0.0168	0.019	0.0216	0.0243	0.0272	0.0312	0.0362
in toluene	0.0191	0.0239	0.0297	0.0366	0.0449	0.0547	0.0657	0.0802	0.0969
